# Entries after “also recorded” stand apart in the source; their conditions may differ.
# What was measured:
# rats with spasticity [1] = test: Peripheral muscle resistance during computer-controlled ankle flexion in rats with ischemia-induced spasticity; type: in vivo
# Description: (§1) After ischemia, animals with developed paraplegia were selected and maintained for 3-12 months. To identify the presence of spasticity, the following tests were performed at 7-14 day intervals as described below: 1) tonic EMG activity recorded from gastrocnemius muscle (i.e., stimulus-independent changes in EMG activity); 2) peripheral muscle resistance measurement during a computer controlled ankle-flexion and simultaneous EMG recording from gastrocnemius muscle (i.e., stimulus-dependent changes in EMG activity); and 3) motor evoked potential recording.
# Peripheral muscle resistance was measured using a previously described system (O. Kakinohana, Neuroscience 1:141(3) (2006)). Briefly, animals are placed into a plastic restrainer and one hind paw attached by a tape to a metal plate driven by a computer-controlled stepping motor. The metal plate is equipped with a digital force transducer. The resistance of the ankle to flexion was measured during motor-driven ankle flexion and data collected directly to the computer.
# rats with spasticity [2] = test: Electromyographic (EMG) recording from gastrocnemius muscle during ankle flexion in rats with ischemia-induced spasticity; type: in vivo; conditions: 100 mg/kg i.p., FIG. 1
# Description: as §1
# To record EMGs, two silver needle (22 G) electrodes (distance between recording electrodes=1 cm) were placed percutaneously into the gastrocnemius muscle. Electrodes were connected to a preamplifier (HS4 fiber optic BIOAMP HEADSTAGE, WPI) and amplified using DB4 fiber optic amplifier (WPI). Animals were then allowed to acclimate for 10 min and the EMG responses recorded before, during and after ankle flexion. Recorded signal was digitized by the Instrunet Model 100 Network A/D, acquired by the Instrunet Model 200 PCI controller (Omega, USA) and stored in PC for analysis.
smiles,measurement,setting,value
N[C@@H](C(=O)N1CCCC1)[C@@H](O)c1ccncc1 [Compound A],spasticity associated with transient ischemia of the spinal cord,rats with spasticity [1]; 100 mg/kg,inhibits the spasticity
same,muscle resistance during the period of ankle flexion,"rats with spasticity [1]; 100 mg/kg of Compound A, spasticity after transient spinal cord ischemia",decrease in muscle resistance
same,EMG response / EMG activity,rats with spasticity [2],corresponding changes in EMG activity; also recorded: inhibits EMG response

# — patent publication US8217059B2, “Compositions and methods for treating spasticity” (Allergan, Inc., priority 2009, dated 2012)
